Measurements reported in BindingDB's records for patent WO2025049746 (Eikon Therapeutics, 2025).
pIC50: −log10 of the molar value.

Legend:
[1] = biological target: Bifunctional 3'-5' exonuclease/ATP-dependent helicase WRN (Homo sapiens, UniProt Q14191); test: ADP-Glo Kinase Assay
Protocol: ATPase activity was measured using the ADP-Glo Kinase Assay following the manufacturers recommended protocol.

[2] = biological target: T1, Bifunctional 3'-5' exonuclease/ATP-dependent helicase WRN [480-1251] (UniProt Q14191); test: Biochemical Activity Assays
T1 construct: 480-1251
T1 sequence (Q14191 480-1251): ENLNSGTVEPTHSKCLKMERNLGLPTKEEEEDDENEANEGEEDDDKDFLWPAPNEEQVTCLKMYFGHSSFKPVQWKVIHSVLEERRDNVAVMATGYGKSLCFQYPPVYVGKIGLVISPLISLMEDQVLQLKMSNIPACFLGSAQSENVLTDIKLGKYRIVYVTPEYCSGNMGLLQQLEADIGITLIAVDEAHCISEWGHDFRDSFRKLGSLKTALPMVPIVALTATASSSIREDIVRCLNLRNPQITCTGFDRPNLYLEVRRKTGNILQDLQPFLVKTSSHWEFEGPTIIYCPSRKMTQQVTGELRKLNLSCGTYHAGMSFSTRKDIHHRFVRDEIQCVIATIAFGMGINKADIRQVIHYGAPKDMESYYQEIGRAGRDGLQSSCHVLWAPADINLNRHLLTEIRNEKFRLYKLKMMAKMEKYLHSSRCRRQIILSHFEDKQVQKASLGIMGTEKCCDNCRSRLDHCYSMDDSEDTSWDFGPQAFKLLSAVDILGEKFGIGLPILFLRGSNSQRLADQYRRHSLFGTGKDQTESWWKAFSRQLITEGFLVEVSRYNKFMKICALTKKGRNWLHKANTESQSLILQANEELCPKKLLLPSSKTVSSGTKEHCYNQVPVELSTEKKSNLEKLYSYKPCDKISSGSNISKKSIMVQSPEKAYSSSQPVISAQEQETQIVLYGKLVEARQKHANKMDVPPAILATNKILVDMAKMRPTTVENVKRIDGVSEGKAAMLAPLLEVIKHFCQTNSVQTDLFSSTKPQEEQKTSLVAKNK

Chain of Bifunctional 3'-5' exonuclease/ATP-dependent helicase WRN (Q14191 whole entry): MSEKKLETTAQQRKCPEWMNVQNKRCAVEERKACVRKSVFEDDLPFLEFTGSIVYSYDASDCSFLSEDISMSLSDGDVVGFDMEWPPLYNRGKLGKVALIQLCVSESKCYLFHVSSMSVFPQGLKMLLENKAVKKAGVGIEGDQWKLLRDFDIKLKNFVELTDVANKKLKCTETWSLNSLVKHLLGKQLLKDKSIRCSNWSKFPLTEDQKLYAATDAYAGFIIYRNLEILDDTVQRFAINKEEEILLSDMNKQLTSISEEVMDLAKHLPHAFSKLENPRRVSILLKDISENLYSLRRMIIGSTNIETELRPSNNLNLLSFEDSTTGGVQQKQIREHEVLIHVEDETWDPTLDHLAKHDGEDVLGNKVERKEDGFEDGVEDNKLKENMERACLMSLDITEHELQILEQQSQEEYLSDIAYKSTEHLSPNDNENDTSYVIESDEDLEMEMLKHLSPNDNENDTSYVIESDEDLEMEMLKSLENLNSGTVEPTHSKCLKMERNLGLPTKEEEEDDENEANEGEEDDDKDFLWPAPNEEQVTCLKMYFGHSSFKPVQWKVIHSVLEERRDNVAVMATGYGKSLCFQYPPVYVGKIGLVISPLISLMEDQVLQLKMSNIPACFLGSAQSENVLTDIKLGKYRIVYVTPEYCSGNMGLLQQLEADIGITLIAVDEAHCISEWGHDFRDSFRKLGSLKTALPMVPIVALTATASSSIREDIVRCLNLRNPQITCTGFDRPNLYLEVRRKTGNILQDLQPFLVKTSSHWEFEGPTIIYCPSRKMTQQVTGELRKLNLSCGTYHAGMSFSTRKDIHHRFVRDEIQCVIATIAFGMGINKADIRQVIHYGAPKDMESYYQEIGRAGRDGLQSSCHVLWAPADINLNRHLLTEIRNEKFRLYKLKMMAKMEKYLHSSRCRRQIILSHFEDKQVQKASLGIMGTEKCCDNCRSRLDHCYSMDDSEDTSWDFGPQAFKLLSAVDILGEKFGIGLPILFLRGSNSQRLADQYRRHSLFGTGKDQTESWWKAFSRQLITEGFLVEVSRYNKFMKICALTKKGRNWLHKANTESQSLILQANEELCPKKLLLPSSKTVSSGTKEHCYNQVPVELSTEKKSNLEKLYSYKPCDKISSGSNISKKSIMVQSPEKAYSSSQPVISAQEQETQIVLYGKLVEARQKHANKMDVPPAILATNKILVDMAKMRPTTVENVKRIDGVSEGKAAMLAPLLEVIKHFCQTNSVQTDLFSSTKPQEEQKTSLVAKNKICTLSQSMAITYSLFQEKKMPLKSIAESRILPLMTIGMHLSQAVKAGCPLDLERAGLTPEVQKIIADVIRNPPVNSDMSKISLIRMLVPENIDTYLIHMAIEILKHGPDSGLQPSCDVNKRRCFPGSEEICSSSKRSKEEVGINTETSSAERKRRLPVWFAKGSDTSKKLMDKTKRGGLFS

Row | Compound | pIC50 [1] | pIC50 [2]
1 | CCc1c(N2CCN(C(=O)c3ncnc(C)c3O)CC2)c(=O)n2nc(-c3ccc4c(c3)OCO4)nc2n1CC(=O)Nc1c(Cl)cc(C(F)(F)F)c2c1CC2 [WO2025049746, Example 380] | 7.21 | 7.36
2 | CCc1c(N2CCN(C(=O)c3ncnc(C)c3O)CC2)c(=O)n2nc(-c3cc4c(cc3F)OCC4)nc2n1CC(=O)Nc1ccc(C(F)(F)F)cc1Cl [WO2025049746, Example 169] | 7.59 | 7.60
3 | CCc1c(N2CCN(C(=O)c3ncnc(C)c3O)CC2)c(=O)n2nc(-c3ccc4nn(C(C)C)cc4c3)nc2n1CC(=O)Nc1ccc(C(F)(F)F)cc1Cl [WO2025049746, Example 262] | 7.52 | 7.51
4 | CCc1c(N2CCN(C(=O)c3nccc4cc[nH]c34)CC2)c(=O)n2nc(-c3ccc4c(c3)COC4(C)C)nc2n1CC(=O)Nc1ccc(C(F)(F)F)cc1Cl [WO2025049746, Example 454] | 6.31 | 6.43
5 | CCc1c(N2CCN(C(=O)c3ncnc(C)c3O)CC2)c(=O)n2nc(-c3ccc4oc(C)nc4c3)nc2n1CC(=O)Nc1ccc(C(F)(F)F)cc1Cl [WO2025049746, Example 21] | 7.35 | 7.41
6 | CCc1c(N2CCN(C(=O)c3ncnc(C)c3O)CC2)c(=O)n2nc(C3=CCOCC3)nc2n1CC(=O)NC12CCC(C(F)(F)F)(CC1)C2 [WO2025049746, Example 362] | 5.78 | 6.21
7 | CCc1c(N2CCN(C(=O)c3nccc4nc[nH]c34)CC2)c(=O)n2nc(N(C)C)nc2n1CC(=O)Nc1ccc(C(F)(F)F)c2c1CC2 [WO2025049746, Example 108] | 7.66 | 7.81
8 | CCc1c(N2CCN(C(=O)c3cc4nnn(C)c4cc3O)CC2)c(=O)n2nc(-c3ccc4c(c3)COC4)nc2n1CC(=O)Nc1ccc(C(F)(F)F)cc1Cl [WO2025049746, Example 433] | 6.86 | 6.96
9 | CCc1c(N2CCN(C(=O)c3ncnc(C)c3O)CC2)c(=O)n2nc(C3=CCOCC3)nc2n1CC(=O)Nc1ccc(OC(F)(F)Cl)cc1Cl [WO2025049746, Example 355] | 7.31 | 7.41
10 | CCc1c(N2CCN(C(=O)c3nc4c(cc3O)CCCC4)CC2)c(=O)n2nc(-c3ccc4c(c3)COC4)nc2n1CC(=O)Nc1ccc(C(F)(F)F)cc1Cl [WO2025049746, Example 423] | 6.77 | 6.82
11 | CCc1c(N2CCN(C(=O)c3ncnc(C)c3O)CC2)c(=O)n2nc(C3=CCOCC3)nc2n1CC(=O)Nc1ccc(SC(F)(F)F)cc1 [WO2025049746, Example 356] | 6.06 | 6.20
12 | CCc1c(N2CCN(C(=O)c3ncnc(C)c3O)CC2)c(=O)n2nc(-c3cnc4[nH]cc(Cl)c4c3)nc2n1CC(=O)Nc1ccc(C(F)(F)F)cc1Cl [WO2025049746, Example 328] | 7.38 | 7.28
13 | CCc1c(N2CCN(C(=O)c3nc4c(cc3OCc3ccc(OC)cc3)COCC4)CC2)c(=O)n2nc(-c3ccc4c(c3)COC4(C)C)nc2n1CC(=O)Nc1ccc(C(F)(F)F)cc1Cl [WO2025049746, Example 464] | 7.17 | 7.08
14 | CCc1c(N2CCN(C(=O)c3ncnc(C)c3O)CC2)c(=O)n2nc(-c3ccc4c(c3)CS(=O)(=O)N4C)nc2n1CC(=O)Nc1ccc(C(F)(F)F)cc1Cl [WO2025049746, Example 279] | 7.59 | 7.54
15 | CCc1c(N2CCN(C(=O)c3ncnc(C)c3O)CC2)c(=O)n2nc(-c3ccc4nc(N5CCOCC5)oc4c3)nc2n1CC(=O)Nc1ccc(C(F)(F)F)cc1Cl [WO2025049746, Example 315] | 7.47 | 7.48
16 | CCc1c(N2CCN(C(=O)c3ncccc3N=S3(=O)CCC3)CC2)c(=O)n2nc(C3=CCOCC3)nc2n1CC(=O)Nc1ccc(C(F)(F)F)cc1Cl [WO2025049746, Example 37] | 7.06 | 7.25
17 | CCc1c(N2CCN(C(=O)c3ncnc(C)c3O)CC2)c(=O)n2nc(-c3cc(OC)c4nn(C)cc4c3)nc2n1CC(=O)Nc1ccc(C(F)(F)F)cc1Cl [WO2025049746, Example 286] | 7.46 | 7.42
18 | CCc1c(N2CCN(C(=O)c3cc(C(C)C)c(O)cc3O)CC2)c(=O)n2nc(-c3ccc4c(c3)COC4)nc2n1CC(=O)Nc1ccc(C(F)(F)F)cc1Cl [WO2025049746, Example 408] | 5.90 | 5.92
19 | CCc1c(N2CCN(C(=O)c3ncnc(C)c3O)CC2)c(=O)n2nc(-c3ccc4c(c3)COC4(C)C)nc2n1CC(=O)Nc1ccc(C(F)(F)F)cc1Cl [WO2025049746, Example 164] | 7.36 | 7.35
20 | CCc1c(N2CCN(C(=O)c3ncnc(C)c3O)CC2)c(=O)n2nc(-c3cncc4c3COCC4)nc2n1CC(=O)Nc1ccc(C(F)(F)F)cc1Cl [WO2025049746, Example 161] | 6.28 | 7.08
21 | CCc1c(N2CCN(C(=O)c3ccccc3NS(C)(=O)=O)CC2)c(=O)n2nc(N(C)C)nc2n1CC(=O)Nc1ccc(C(F)(F)F)c2c1CC2 [WO2025049746, Example 106] | 6.38 | 6.56
22 | CCc1c(N2CCN(C(=O)c3ncnc(C)c3O)CC2)c(=O)n2nc(N(C)C)nc2n1C(F)(F)C(=O)Nc1ccc(C(F)(F)F)cc1Cl [WO2025049746, Example 401] | 7.23 | 7.35

Row | Compound | pIC50 [1] | pIC50 [2]
23 | CCc1c(N2CCN(C(=O)c3ncnc(C)c3O)CC2)c(=O)n2nc(-c3ccc4c(c3)[C@@H](C)OC4)nc2n1CC(=O)Nc1ccc(C(F)(F)F)cc1Cl [WO2025049746, Example 190] | 7.42 | 7.52
24 | CCc1c(N2CCN(C(=O)c3ncnc(C)c3O)CC2)c(=O)n2nc(-c3ccc4c(c3)OCCO4)nc2n1CC(=O)Nc1ccc(C(F)(F)F)cc1Cl [WO2025049746, Example 1] | 7.63 | 7.68
25 | CCc1c(N2CCN(C(=O)c3ccnc(C)c3O)CC2)c(=O)n2nc(-c3ccc4c(c3)COC4(C)C)nc2n1CC(=O)Nc1ccc(C(F)(F)F)cc1Cl [WO2025049746, Example 455] | 7.40 | 7.32
26 | CCc1c(N2CCN(C(=O)c3ncnc(C)c3O)CC2)c(=O)n2nc(-c3cc(C)c4c(c3)COC4(C)C)nc2n1CC(=O)Nc1ccc(C(F)(F)F)cc1Cl [WO2025049746, Example 221] | 7.33 | 7.25
27 | CCc1c(N2CCN(C(=O)c3ncnc(C)c3O)CC2)c(=O)n2nc(-c3ccc4c(c3)CSC4)nc2n1CC(=O)Nc1ccc(C(F)(F)F)cc1Cl [WO2025049746, Example 257] | 7.55 | 7.52
28 | CCc1c(N2CCN(C(=O)c3nc4n(c(=O)c3O)CCOC4)CC2)c(=O)n2nc(C3=CCOCC3)nc2n1CC(=O)Nc1ccc(C(F)(F)F)cc1Cl [WO2025049746, Example 32] | 7.53 | 7.60
29 | CCc1c(N2CCN(C(=O)c3ncnc(C)c3O)CC2)c(=O)n2nc(-c3ccc4c(c3)C(=O)N(C)C4)nc2n1CC(=O)Nc1ccc(C(F)(F)F)cc1Cl [WO2025049746, Example 186] | 7.28 | 7.35
30 | CCc1c(N2CCN(C(=O)c3ncnc(C)c3O)CC2)c(=O)n2nc(-c3cc4c(cc3F)O[C@H](C)C4)nc2n1CC(=O)Nc1ccc(C(F)(F)F)cc1Cl [WO2025049746, Example 250] | 7.66 | 7.70
31 | CCc1c(N2CC[C@@H](C)N(C(=O)c3ncnc(C)c3O)CC2)c(=O)n2nc(C3=CCOCC3)nc2n1CC(=O)Nc1ccc(C(F)(F)F)cc1Cl [WO2025049746, Example 341] | 7.10 | 7.17
32 | CCc1c(N2CCN(C(=O)c3ncnc(C)c3O)CC2)c(=O)n2nc(-c3cc4c(cc3F)[C@H](OC)CC4)nc2n1CC(=O)Nc1ccc(C(F)(F)F)cc1Cl [WO2025049746, Example 245] | 7.59 | 7.55
33 | CCc1c(N2CCN(C(=O)c3ncnc(C)c3O)CC2)c(=O)n2nc(-c3ccc4c(c3)CCO4)nc2n1CC(=O)Nc1c(Cl)cc(C(F)(F)F)c2scnc12 [WO2025049746, Example 428] | 7.35 | 7.42
34 | CCc1c(N2CCN(C(=O)c3ncnc(C)c3O)CC2)c(=O)n2nc(-c3ccc4c(c3)oc(=O)n4C)nc2n1CC(=O)Nc1ccc(C(F)(F)F)cc1Cl [WO2025049746, Example 233] | 7.68 | 7.62
35 | CCc1c(N2CCN(C(=O)c3ncnc(C)c3O)CC2)c(=O)n2nc(-c3ccc4c(c3)CCOC4)nc2n1CC(=O)Nc1ccc(SC(F)(F)F)cc1Cl [WO2025049746, Example 395] | 7.37 | 7.46
36 | CCc1c(N2CCN(C(=O)c3ncnc(C)c3O)CC2)c(=O)n2nc(-c3cc(F)c4c(c3)COC4(C)C)nc2n1CC(=O)Nc1ccc(C(F)(F)F)cc1Cl [WO2025049746, Example 212] | 7.07 | 7.14
37 | CCc1c(N2CCN(C(=O)c3nccc4nc[nH]c34)CC2)c(=O)n2nc(-c3ccc4c(c3)OCO4)nc2n1CC(=O)Nc1ccc(C(F)(F)F)cc1Cl [WO2025049746, Example 88] | 7.31 | 7.54
38 | CCc1c(N2CCN(C(=O)c3ncnc(C)c3O)CC2)c(=O)n2nc(C3=CCOCC3)nc2n1CC(=O)NC1CC2(C1)CC2(F)F (stereo unspecified) [WO2025049746, Example 366] | 5.38 | 5.60
39 | CCc1c(N2CCN(C(=O)c3ncnc(C)c3O)CC2)c(=O)n2nc(-c3cccc4c3OCCO4)nc2n1CC(=O)Nc1ccc(C(F)(F)F)c2c1CC2 [WO2025049746, Example 97] | 7.71 | 7.80
40 | CCc1c(N2CCN(C(=O)c3ncnc(C)c3O)CC2)c(=O)n2nc(-c3cccc4c3OCO4)nc2n1CC(=O)Nc1ccc(SC(F)(F)F)cc1Cl [WO2025049746, Example 400] | 6.89 | 6.99
41 | CCc1c(N2CCN(C(=O)c3ncnc(C)c3O)CC2)c(=O)n2nc(-c3ccc4nc(C)sc4c3)nc2n1CC(=O)Nc1ccc(C(F)(F)F)cc1Cl [WO2025049746, Example 285] | 7.59 | 7.54
42 | CCc1c(N2CCN(C(=O)c3ncnc4cc[nH]c34)CC2)c(=O)n2nc(-c3ccc4c(c3)COC4)nc2n1CC(=O)Nc1ccc(C(F)(F)F)cc1Cl [WO2025049746, Example 444] | 7.36 | 7.40
43 | CCc1c(N2CCN(C(=O)c3ncnc(C)c3O)CC2)c(=O)n2nc(C3=CCOCC3)nc2n1CC(=O)NC1CCC(F)(F)CC1 [WO2025049746, Example 351] | 5.40 | 5.44
